Test results from patent US7524840B2, “7,8-disubstituted pyrazolobenzodiazepines” (Hoffmann-La Roche Inc., priority 2004, dated 2009).

Target: T1, FGFR
T1 construct: fused on or other part: GST tag
Test: FGFR kinase HTRF assay
Type: biochemical
Conditions: 1.5 nM activated FGFR, 10 μM ATP; read-out: Inhibition of FGFR IC50
Experimental: To determine inhibition of KDR and FGFR, kinase assays were conducted using an HTRF (Homogeneous Time Resolved Fluorescence) assay. This assay is described in A. J. Kolb et. al., Drug Discovery Today, 1998, 3(7), p 333.
FGFR activity assays were carried out as described above for the KDR activity assay with the following differences. GST-tagged FGFR enzyme was activated at room temperature for 1 hour in the following activation buffer: 100 mM HEPES, pH 7.4, 50 mM NaCl, 20 mM MgCl2, and 4 mM ATP. […] The rest of the assay was performed in the same manner as KDR assay.
Compound IC50 values were determined from duplicate sets of data, and calculated by using Excel and fitting data to equation Y=[(a−b)/{1+(X/c)^d]+b, where a and b are enzyme activity in the presence of no test inhibitor compound and an infinite amount of inhibitor test compound, respectively, c is the IC50 and d is the hill constant of the compound response. The IC50 value is the concentration of test compound that reduces by 50% the enzyme activity under the test conditions described.

SMILES: COc1cc2c(cc1F)C(c1ccccc1Cl)=Nc1c(n[nH]c1C)N2 [IVa, 5-(2-chlorophenyl)-1,2-dihydro-7-fluoro-8-methoxy-3-methyl-pyrazolo[3,4-b][1,4]benzodiazepine]
- IC50: 28 nM
